Reference: patent US7572436B1, “Thionin as an antineoplastic and immunostimulant” (priority 2000, dated 2009)
Values joined by “and” are separate entries in the source; they are usually repeats but may differ in a detail not shown here. Equal values may be shown once. Where no end group is shown, it is not given here.

How the values were obtained:
Balb C splenocytes = assay: Mitogen assay (^3H-thymidine uptake), murine splenocytes; assay type: cell-based; conditions: for CPM of tritiated thymidine incorporated: Balb C splenocytes
From the text: Murine spleen cells or human peripheral blood lymphocytes (PBLS) were obtained aseptically as described herein for use in the mitogen assay. When murine splenocytes were used, they were first treated with red cell lysing buffer (0.17 M Tris, 0.144 NH4C1, pH 7.2), washed in RPMI-10 (standard RPMI growth medium, Sigma Chemical Co., St. Louis, Mo., supplemented with 10% fetal bovine serum) and viable cells counted using Trypan Blue exclusion. Human PBLs were isolated from blood using HISTOPAQUE™-1077, a solution of FICOLL™ and sodium diatrizoate (Sigma Chemical Co., St. Louis, Mo.), and subsequent washings with RPMI-5 (RPMI supplemented with 5% fetal bovine serum) to remove platelets. Isolated lymphocytes were resuspended in RPMI-10 and a viable cell yield determined by Trypan Blue exclusion.
Drugs and known mitogenic controls were added in triplicate to a 96-well flat bottom microplate aseptically. The culture medium was RPMI-10. Splenocytes or human-lymphocytes were added at a concentration of 3-4×10^5 cells/well, to a final volume of 200 μl/well. The assay plate was incubated at 37° C. in a 5% CO2 humidified incubator. At 48-50 hours, ^3H-thymidine was added (1 μCi/well), and the plate was harvested approximately 16-18 hours later.
Mitogen assay microplates were harvested using an Inotech plate harvester (Inotech Biosystems International, Inc., Rockville, Md.). Counts per minute (cpm) per well were measured using the Berthold-Inotech Trace 96-plate reader (Inotech AT, Wohlen, Switzerland) and/or a scintillation counter (Packard Tri-carb 2100TR, Packard Instrument Co., Meriden, Conn.). Mitogenic activity was directly determined by comparing cpm levels to controls.
To test whether PT stimulates mitogen activity, splenocytes were incubated for two days with IL-2 (50 units/ml) or KLH (20 μg/ml) in conjunction with PT in the concentrations shown. Figures represent the radioactivity counts of tritiated thymidine taken up during a subsequent 20-hour incubation period of cells incubated with tritiated thymidine in RPMI.

IL-1 = assay: ELISA of IL-1 production by splenocytes; assay type: cell-based, Balb C murine; conditions: 48 hours, PT 0.05 μg/ml
Method: (§1) Identical plates are set up for an immunoassay and a mitogen assay. Mouse splenocytes and immuno-stimulating drugs are plated in duplicate wells (immunoassay) and triplicate wells (mitogen assay) in 96-well microplates as described above. The incubation at 37° C. in a humidified 5% CO2 incubator may vary from three to five days. At the end of the activation/proliferation period, the two identical plates are harvested as an immunoassay for cytokines or harvested as a mitogen assay (to which ^3H-thymidine has been added approximately 16-18 hours earlier).
(§2) Immunoassay kits used to detect IL-1β, IL-2, and IL-12 were the murine Quantikine M™ kits produced by R&D Systems (Minneapolis, Minn.). The general procedure is the same for all interleukin cytokines, and is described in the instructions provided by the manufacturer. All reagents are used at room temperature, and are prepared according to kit instructions.
(§3) The immunoassay plate is centrifuged at 200×g to pellet all cells. A 50 μl aliquot of Assay Diluent is first added to the center of each special enzyme-coated well supplied with the kit. Next, 50 μl of standard, control or test sample of supernatant from the immunoassay incubation plate is added to each well. This is incubated at room temperatures for two hours.
Liquid is aspirated from the wells, and the wells are washed five times with surfactant diluted 1:25 with distilled water. A 100 μL aliquot of Conjugate is added to each well and incubated two hours at room temperature. The wells are again aspirated and each well washed five times.
One hundred microliters of Substrate Solution are added to each well and incubated 30 minutes at room temperature. Stop Solution (100 μl) is then added to each well. The color change is light blue to yellow (activity). The plate is read for absorbence at 450 nm and at 540 nm for background readings.
(§4) To calculate the results, the duplicate readings for each pair of standard, control, and test samples are averaged and the average background optical density readings are subtracted. A standard curve is constructed for the cytokine by plotting the mean absorbence for each standard on the y-axis against the concentration on the x-axis and drawing a best-fit curve. Picograms of cytokine are determined from the standard curve. Mitogenic activity determined from the cpm of ^3H-thymidine is compared to the concentrations of cytokine in the experimental samples in the corresponding immunoassay.
One measure of macrophage activation is the production of the cytokine interleukin-1 (IL-1) and also interleukin-12 (IL-12). Incubation of 3×10^5 Balb C murine spleen cells with 0.05 μg/ml PT was performed for 48 hours. The supernatant fluid was assayed with commercial ELISA kits for IL-1 and IL-12. […] Some experiments gave less […] and some more. This is likely a reflection of the state of the immune system in the experimental mice. The addition of KLH, an effective antigen, increased both IL-1 and IL-12 production, and the addition of PT along with the KLH further increased the production of these cytokines.

IL-12 = assay: ELISA of IL-12 production by splenocytes; assay type: cell-based, Balb C murine; conditions: 48 hours, PT 0.05 μg/ml
Method: as §1, §2, §3
Liquid is aspirated from the wells, and the wells are washed five times with surfactant diluted 1:25 with distilled water. A 100 μL aliquot of Conjugate is added to each well and incubated two hours at room temperature. […]
One hundred microliters of Substrate Solution are added to each well and incubated 30 minutes at room temperature. […] The plate is read for absorbence at 450 nm and at 540 nm for background readings.
as §4, with “A standard curve is constructed for the cytokine by plotting the mean absorbence for each standard on the y-axis against the concentration on the x-axis and drawing a best-fit curve.” left out, “immunoassay. […]” for “immunoassay.”

[1] = Stability of PT (temperature, proteases); assay type: physicochemical
[2] = system: membrane structure of cells or phospholipid vesicles; conditions: reported in the literature; begin around this value and continue up to and above 20 μg/ml; cited from earlier work

Substance: Pyrularia thionin (KSCCRNTWARNCYNVCRLPGTISREICAKKCDCKIISGTTCPSDYPK; ends and bridges not checked; also: labeled with 125I) [PT]
- CPM of tritiated thymidine incorporated (Balb C splenocytes; 0.003 μg/ml, RPMI + IL-2 50 units/ml): 2,656 ± 110 CPM
- CPM of tritiated thymidine incorporated (Balb C splenocytes; 0.003 μg/ml, RPMI + KLH 20 μg/ml): 3,957 ± 134 CPM
- CPM of tritiated thymidine incorporated (Balb C splenocytes; 0.003 μg/ml, RPMI): 230 ± 6 CPM
- Cpm, standard mitogen assay (Balb C splenocytes; 0.01 μg/ml PT, GM-CSF (5 ng/ml)): 1,767 Cpm
- Cpm, standard mitogen assay (Balb C splenocytes; 0.01 μg/ml PT, GM-CSF (20 ng/ml)): 1,254 Cpm
- Cpm, standard mitogen assay (Balb C splenocytes; 0.01 μg/ml PT, no GM-CSF, BALB C spleen cells): 287 Cpm
- CPM of tritiated thymidine incorporated (Balb C splenocytes; 0.01 μg/ml, KLH 20 μg/ml): 3,737 ± 134 CPM
- CPM of tritiated thymidine incorporated (Balb C splenocytes; 0.03 μg/ml, RPMI + IL-2 50 units/ml): 3,017 ± 107 CPM
- CPM of tritiated thymidine incorporated (Balb C splenocytes; 0.03 μg/ml, RPMI + KLH 20 μg/ml): 4,162 ± 200 CPM
- CPM of tritiated thymidine incorporated (Balb C splenocytes; 0.03 μg/ml, RPMI): 269 ± 57 CPM
- Cpm, standard mitogen assay (Balb C splenocytes; 0.1 μg/ml PT, GM-CSF (20 ng/ml)): 1,549 Cpm
- CPM of tritiated thymidine incorporated (Balb C splenocytes; 0.1 μg/ml, RPMI + IL-2 50 units/ml): 2,910 ± 351 CPM
- CPM of tritiated thymidine incorporated (Balb C splenocytes; 0.1 μg/ml, RPMI + KLH 20 μg/ml): 4,254 ± 140 CPM and 4,284 ± 140 CPM
- CPM of tritiated thymidine incorporated (Balb C splenocytes; 0.1 μg/ml, RPMI): 268 ± 74 CPM
- CPM of tritiated thymidine incorporated (Balb C splenocytes; 0.3 μg/ml, RPMI + IL-2 50 units/ml): 2,395 ± 103 CPM
- CPM of tritiated thymidine incorporated (Balb C splenocytes; 0.3 μg/ml, RPMI + KLH 20 μg/ml): 3,985 ± 101 CPM and 3,980 ± 101 CPM
- CPM of tritiated thymidine incorporated (Balb C splenocytes; 0.3 μg/ml, RPMI): 142 ± 10 CPM and 147 ± 10 CPM
- CPM of tritiated thymidine incorporated (Balb C splenocytes; 1.0 μg/ml, RPMI + IL-2 50 units/ml): 951 ± 122 CPM
- CPM of tritiated thymidine incorporated (Balb C splenocytes; 1.0 μg/ml, RPMI + KLH 20 μg/ml): 1,742 ± 154 CPM and 1,747 ± 154 CPM
- CPM of tritiated thymidine incorporated (Balb C splenocytes; 1.0 μg/ml, RPMI): 107 ± 25 CPM
- IL-1 (IL-1; Experiment 1, KLH 10 μg/ml, control 3.9): 6.0 ± 0.2 pg/mL
- IL-1 (IL-1; Experiment 3, control 2): 2.4 ± 0 pg/mL
- IL-1 (IL-1; Experiment 4, KLH (20 mg/ml), control 9): 14 ± 0.9 pg/mL
- IL-12 (IL-12; Experiment 1, KLH 10 μg/ml, control 1.5): 5.6 ± 0.3 pg/mL
- IL-12 (IL-12; Experiment 2, control 21): 24 ± 0.3 pg/mL
- interaction with cell membranes after exposure to temperature ([1]; 70° C.): not influenced
- resistance to proteases ([1]; common proteases found in blood): resistant to the common proteases found in blood
- concentrations required to induce changes in the membrane structure of cells or phospholipid vesicles [2]: ≥ 1000 ng/mL
